The text below walks through data of patent US8618158B2, “Therapeutic agents” (Cancer Research Technology Limited, priority 2008, dated 2013).

Read-outs that look alike come from different tables or passages of the source.

Assay [1] deals with SJSA-1 cell line. Kind of assay: Western blot of MDM2, p53 and p21 levels in SJSA-1 cells. The assay is classed as cell-based. The conditions noted are these: for levels of p53, p21 and MDM2 protein (FIG. 1): MDM2 amplified SJSA-1 cells, 1-20 μM. The protocol: The medium was then aspirated and the dishes were washed with 3 mL of cold PBS.
The samples were then loaded onto a precast 4-20% gradient polyacrylamide Tris-Glycine gels (15 wells, 1.5 mm thickness, Invitrogen Life Technologies), along with a pre-stained marker protein (SeeBlue, Invitrogen). The Gels were processed in Novex XCell (Invitrogen) at 180V and blotted onto a High Bond C membrane (Amersham Life Science) overnight at 30V.
The membrane was then blocked for one hour at room temperature in TBS-Tween containing 5% non-fat milk (TBST-M) followed by incubation with primary antibodies for MDM2 (MDM2-Ab 1, 1:500, Oncogene), p53 (p53-D07, 1:1000, Novacastra), p21 (p21 Ab1, 1:100, Oncogene) and Actin (Actin AC40, 1:1000, Sigma) in PBST-M for 1 hour.
The membrane was then washed three times in TBST (15 minutes per wash) and then incubated for an additional 1 hour with a anti mouse or a rabbit horseradish peroxidase (HRP) secondary antibody (Dako, 1:1000) in PBST-M followed by a final wash consisting of six washes with TBST at 5 minutes per wash.
For orientation: A western blot detects proteins with antibodies after separation by electrophoresis.

Assay [2] has as its system p53−/− HCT116 cells. The assay can be described thus: Growth inhibition in p53−/− HCT116 cells. The class given is cell-based. The conditions noted are these: comparison of p53 wt and p53−/− HCT116.
For assay [3], the system named is wild-type p53 HCT116 cells. The assay can be described thus: Growth inhibition in p53 wild-type HCT116 cells. The assay is classed as cell-based.
In assay [4] the test system is p53-dependent transcriptional activity. Kind of assay: Luciferase based p53-dependent reporter gene assay. The class given is cell-based. A general note: Reporter assays use an easily measured gene product as a stand-in for the process of interest.
The target in assay [5] is MDM2-p53 interaction (Homo sapiens (Human), UniProt Q00987). The assay can be described thus: MDM2-p53 ELISA binding assay. As for the experimental part: Streptavidin-coated 96-well plates are used to immobilise a biotin-tagged IP3 p53-derived peptide ([…]). This is a peptide analogue derived from the p53 binding site for MDM2 ([…]). […] Aliquots of MDM2 generated by in vitro translation are pre-incubated for 20 minutes at room temperature (i.e. 20-25° C.) with test compounds and controls, before transfer into the IP3-coated 96-well plates.
3-(4-Chloro-phenyl)-3-(4-hydroxy-3,5-dimethoxy-benzyloxy)-2-propyl-2,3-dihydro-isoindolin-1-one (NU8231) is currently included as a standard “lead compound” positive control. […] The AP peptide is included as a positive control for biological evaluation of the isoindolinones in the cell free binding assays.
All compounds are dissolved in DMSO and tested at a range of concentrations in the presence of a fixed final concentration of 5% DMSO.
(ELISA stands for enzyme-linked immunosorbent assay.)

Assay [6] concerns SJSA-1 cell line. The assay can be described thus: Western blot of PARP and caspase-3 cleavage in SJSA-1 cells. The class given is cell-based. The conditions noted are these: SJSA-1, after 48 hours of treatment, in comparison to nutlin-3.
Setting [7] is: Table 5, read-out: MDM2-p53 ELISA IC50.
The mark [8] stands for this setting: Table 2, mean ± SE of n = 3 unless indicated, read-out: ELISA IC50.
[9] abbreviates: Table 1, mean ± SE of n = 3 unless indicated, read-out: ELISA IC50.

Broadly, the IC50 is the concentration that gives 50% inhibition.

Chain of MDM2-p53 interaction (Q00987 whole entry): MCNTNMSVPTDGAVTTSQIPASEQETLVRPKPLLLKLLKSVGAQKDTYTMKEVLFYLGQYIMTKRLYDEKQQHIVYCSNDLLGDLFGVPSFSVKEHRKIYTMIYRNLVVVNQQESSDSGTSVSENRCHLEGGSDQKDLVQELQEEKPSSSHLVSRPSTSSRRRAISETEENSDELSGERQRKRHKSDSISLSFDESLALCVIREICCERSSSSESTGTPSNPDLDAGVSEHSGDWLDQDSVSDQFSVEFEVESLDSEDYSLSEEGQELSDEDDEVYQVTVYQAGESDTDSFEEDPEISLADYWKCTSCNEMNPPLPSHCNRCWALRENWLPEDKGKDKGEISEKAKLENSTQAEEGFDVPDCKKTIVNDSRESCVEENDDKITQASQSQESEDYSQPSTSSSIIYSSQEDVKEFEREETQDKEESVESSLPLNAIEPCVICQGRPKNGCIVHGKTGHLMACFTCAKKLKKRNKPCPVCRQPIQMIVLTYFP

As to `COc1ccc(C2=NC(c3ccc(Cl)cc3)C(c3ccc(Cl)cc3)N2C(=O)N2CCNC(=O)C2)c(OC(C)C)c1` (racemic) [Nutlin-3, (±)-4-[4,5-bis-(4-Chlorophenyl)-2-(2-isopropoxy-4-methoxyphenyl)-4,5-dihydroimidazole-1-carbonyl]-piperazin-2-one], the “MDM2, p53 and p21 levels by Western blotting (FIG. 12)” value in assay [1] (SJSA-1 cells, 1 to 20 μM) was “strong dose dependent increase in MDM2, p53 and p21 levels”. Moreover, in assay [2], the “growth inhibition p53 wt versus p53−/− HCT116 (FIGS. 5 and 6)” value is listed as “greater growth inhibition in the p53 wt HCT116 cell line than the p53−/− HCT116 cells”. Besides, the “growth inhibition (FIGS. 5 and 6)” value in assay [3] is reported as “growth inhibitory”.

Consider `O=C1c2ccccc2C(O[C@H]2C=C[C@@H](O)C2)(c2ccc(Cl)cc2)N1Cc1ccc([N+](=O)[O-])cc1` (stereo in doubt) [NU8297, 3-(4-Chlorophenyl)-3-(4-hydroxycyclopent-2-enyloxy)-2-(4-nitrobenzyl) isoindolin-1-one], for which the “levels of p53, p21 and MDM2 protein (FIG. 1)” value (shortened to “levels of p53”) in assay [1] was “did not show any evidence of activity”. In addition, in assay [4], the “p53 dependent transcriptional activity (FIG. 3)” value is recorded as “activation of p53 dependent transcriptional activity”.

For `O=C1c2ccccc2C(OCC2(CO)CC2)(c2ccc(Cl)cc2)N1Cc1ccc(I)cc1` (stereo not drawn) [NCL-00014529, 3-(4-chlorophenyl)-3-(1-hydroxymethylcyclopropylmethoxy)-2-(4-iodobenzyl)-2,3-dihydroisoindol-1-one], the IC50 in assay [5] (setting [7]) was determined as 1500 nM.

With `O=C1c2ccccc2C(OC[C@H]2CC[C@H](CO)CC2)(c2ccc(Cl)cc2)N1Cc1ccc([N+](=O)[O-])cc1` (stereo partly drawn) [NU8358, 3-(4-Chlorophenyl)-3-(4-hydroxymethylcyclohexylmethoxy)-2-(4-nitrobenzyl)-2,3-dihydroisoindol-1-one], the IC50 in assay [5] (setting [8]) is 582 ± 75 nM.

As to `O=C1c2ccccc2C(O[C@H]2C=C[C@@H](O)C2)(c2ccc(Cl)cc2)N1Cc1ccccc1` (stereo in doubt) [NU8298, 2-Benzyl-3-(4-chlorophenyl)-3-(4-hydroxycyclopent-2-enyloxy) isoindolin-1-one], the IC50 in assay [5] (setting [9]) came out at 2300 ± 300 nM.

Consider `O=C1c2ccccc2C(O[C@H]2CC[C@@H](O)C2)(c2ccc(Cl)cc2)N1Cc1ccc([N+](=O)[O-])cc1` (stereo partly drawn) [NU8296, 3-(4-chlorophenyl)-3-((1S,3R)-3-hydroxycyclopentyloxy)-2-(4-nitrobenzyl)isoindolin-1-one], for which the “PARP and caspase-3 cleavage (FIG. 4)” value in assay [6] is on record as “comparable to those observed with nutlin-3”. Also, the “p53 dependent transcriptional activity (FIG. 3)” value in assay [4] is listed as “activation of p53 dependent transcriptional activity”.

On to `O=C1c2ccccc2C(OCC=CCO)(c2ccc(Cl)cc2)N1Cc1ccc([N+](=O)[O-])cc1` (stereo not drawn) [NU8351, 3-(4-Chlorophenyl)-3-(4-hydroxybut-2-enyloxy)-2-(4-nitrobenzyl)-2,3-dihydroisoindol-1-one], for which, in assay [5] (setting [8]), the IC50 amounted to 405 ± 10 nM.

Consider `O=C1c2ccccc2C(OC2C=C[C@@H](O)C2)(c2ccc(Cl)cc2)N1Cc1ccc(Cl)cc1` (stereo in doubt) [NU8293, 3-(4-Chlorophenyl)-3-(4-hydroxycyclopent-2-enyloxy)-2-(4-chlorobenzyl) isoindolin-1-one], for which the “levels of p53” value in assay [1] was “induction of increased levels of p53, p21 and MDM2 protein”. Also, the “p53 dependent transcriptional activity (FIG. 3)” value in assay [4] is reported as “activation of p53 dependent transcriptional activity”. For the same compound, in assay [5] (setting [9]), the IC50 turned out to be 1500 ± 300 nM.

Take `O=C1c2ccccc2C(O)(c2ccc(F)cc2)N1Cc1ccc([N+](=O)[O-])cc1` (stereo not drawn) [NCL-00016657, 3-(4-fluorophenyl)-3-hydroxy-2-(4-nitrobenzyl)-2,3-dihydroisoindol-1-one]: the IC50 in assay [5] (setting [7]) worked out at 9460 nM.

For the compound `Cc1ccc(CN2C(=O)c3ccccc3C2(O[C@H]2C=C[C@@H](O)C2)c2ccc(Cl)cc2)cc1` (stereo in doubt) [NU8295, 3-(4-Chlorophenyl)-3-(4-hydroxycyclopent-2-enyloxy)-2-(4-methylbenzyl) isoindolin-1-one], the “levels of p53” value in assay [1] was “induction of increased levels of p53, p21 and MDM2 protein”. In assay [5] (setting [9]), the IC50 was found to be 1400 ± 400 nM.

Consider `CC(C)(CO)COC1(c2ccc(Cl)cc2)c2ccccc2C(=O)N1Cc1ccc([N+](=O)[O-])cc1` (stereo not drawn) [NU8353, 3-(4-Chloro-phenyl)-3-(3-hydroxy-2,2-dimethyl-propoxy)-2-(4-nitro-benzyl)-2,3-dihydro-isoindol-1-one], for which, in assay [5] (setting [8]), the IC50 was 395 ± 75 nM.

Regarding `O=C1c2ccccc2C(O)(c2ccc(Cl)cc2)N1Cc1cccc2ccccc12` (stereo not drawn) [NCL-00016046, 3-(4-chlorophenyl)-3-hydroxy-2-naphthalen-1-ylmethyl-2,3-dihydroisoindol-1-one], the IC50 in assay [5] (setting [7]) worked out at 96000 nM.

For `O=C1c2ccccc2C(OC/C=C\CO)(c2ccc(Cl)cc2)N1Cc1ccc([N+](=O)[O-])cc1` (stereo not drawn) [NU8350, 3-(4-Chlorophenyl)-3-(4-hydroxybut-2-enyloxy)-2-(4-nitrobenzyl)-2,3-dihydroisoindol-1-one], in assay [5] (setting [8]), the IC50 is 402 ± 9 nM.

As to `O=C1c2ccccc2C(OCCCO)(c2ccc(Br)cc2)N1Cc1ccc([N+](=O)[O-])cc1` (stereo not drawn) [NU8392, 3-(4-bromophenyl)-3-(3-hydroxypropoxy)-2-(4-nitrobenzyl)isoindolin-1-one], the IC50 in assay [5] (Table 3, read-out: MDM2 IC50) came to 1400 ± 160 nM.

Regarding `O=C1c2ccccc2C(OCCCCO)(c2ccc(Cl)cc2)N1CCc1ccc([N+](=O)[O-])cc1` (stereo not drawn) [NU8362, 3-(4-Chlorophenyl)-3-(4-hydroxybutoxy)-2-[2-(4-nitrophenyl)ethyl]-2,3-dihydroisoindol-1-one], the IC50 in assay [5] (setting [9]) worked out at 3200 ± 1000 nM.

On to `O=C1c2ccccc2C(OCC2(CO)CC2)(c2ccc(Cl)cc2)N1Cc1ccc(Cl)cc1` (stereo not drawn) [NU8416, 2-(4-chlorobenzyl)-3-(4-chlorophenyl)-3-((1-(hydroxymethyl)cyclopropyl)methoxy)isoindolin-1-one], for which the IC50 in assay [5] (Table 4, read-out: MDM2 IC50) came out at 2310 ± 560 nM.

With `O=C1c2ccccc2C(OCCCCO)(c2ccc(Br)cc2)N1Cc1ccc([N+](=O)[O-])cc1` (stereo not drawn) [NU8390, 3-(4-bromophenyl)-3-(4-hydroxybutoxy)-2-(4-nitrobenzyl)isoindolin-1-one], in assay [5] (Table 3, read-out: MDM2 IC50), the IC50 came out at 570 ± 59 nM.
